The subject of one test is NF-κB1. In words: Canonical NF-κB1 activation in obstructed kidneys (UUO) in mice. The conditions noted are these: paricalcitol-treated obstructed kidneys (UUO); 750 ng/kg/day. The test is classed as in vivo. On the procedure:
All animal procedures were performed according to the guidelines of animal research in the European Community and with prior approval by the Ethics Committee of the Health Research of the IIS-Fundacion Jiménez Díaz. For in vivo studies, mice received a daily intraperitoneal injection of the VDRA Paricalcitol starting 48 hours prior to induction of kidney damage.
At the time of sacrifice, animals were anesthetized with 5 mg/kg xylazine (Rompun, Bayer AG) and 35 mg/kg ketamine (Ketolar, Pfizer) and the kidneys perfused in situ with cold saline before removal. Then, kidney portions were fixed in formalin buffer for immunohistochemistry studies or immediately frozen in liquid nitrogen for gene and protein studies.
Unilateral ureteral obstruction (UUO) was established in male C57BL/6 mice, under isoflurane-induced anesthesia. […]
(§1) For western blot, cell (25 µg/lane) and kidney (100-150 µg/lane) protein extracts were separated on 6%-12% polyacrylamide-SDS gels under reducing conditions. […] Autoradiographs were scanned using the Gel Doc™ EZ imager and analyzed with the Image Lab 3.0 software (BioRad).

Another test concerns TRAF3. Kind of test: TRAF3 western blot in TWEAK-stimulated HK2 cells. The conditions noted are these: paricalcitol 15 umol/L 48 hours before TWEAK 100 ng/ml for 24 hours. The test is classed as cell-based, Human. On the procedure: (§2) Human kidney proximal tubule epithelial cells (HK2 cell line, ATCC CRL-2190) were grown in RPMI 1640 with 10% fetal bovine serum (FBS), 1% glutamine, 100 U/ml penicillin, 100 µg/ml streptomycin, 5 µg/ml insulin-transferrin-selenite and 36 ng/ml hydrocortisone in 5% CO2 at 37° C. When cells reached 60 to 70% confluence, they were serum-depleted for 24 hours before the experiment.
(§3) Cells were stimulated with 100ng/ml recombinant human soluble TWEAK (Millipore) or p-200 µg/ml cresyl-sulfate (Raymond Vanholder and Griet Glorieux, University of Gent, Belgium). Concentrations of TWEAK and p-cresyl-sulfate were based on previously published dose-response experiments (Poveda et al. 2014; Sanz et al. 2008). […] DMSO, used as a solvent in some cases, had no effect on cell viability or on gene expression levels.
as §1
Background: A western blot detects proteins with antibodies after separation by electrophoresis.

Another test deals with NF-κB2. In words: Non-canonical NF-κB2 activation (western blot) in TWEAK-stimulated HK2 cells. The test is classed as cell-based, Human. The conditions noted are these: 12 µM paricalcitol for 48 hours, TWEAK 100 ng/ml 6 hours. On the procedure: as §2
Cells were stimulated with 100ng/ml recombinant human soluble TWEAK (Millipore) or p-200 µg/ml cresyl-sulfate (Raymond Vanholder and Griet Glorieux, University of Gent, Belgium). Concentrations of TWEAK and p-cresyl-sulfate were based on previously published dose-response experiments (Poveda et al. 2014; Sanz et al. 2008). In some experiments cells were preincubated for 48 hours with the paricalcitol 12 µmol/L (Abbott) prior to stimulation. DMSO, used as a solvent in some cases, had no effect on cell viability or on gene expression levels.
as §1

The subject of a further test is CIAP1-TRAF3 complex. Kind of test: TRAF3 immunoprecipitation (ubiquitin-Lys-48, CIAP1) in TWEAK-stimulated HK2 cells. The test is classed as cell-based, Human. The conditions noted are these: TWEAK 100 ng/ml, paricalcitol 15 umol/L. On the procedure: as §2, §3
Cells growing in tissue culture dish plates, were lysed in 300-500 µl Triton-NP-40 lysis buffer [50 mmol/L Tris-HCl pH 8, 150 mmol/L NaCl, 1 mmol/L phenylmethylsulphonylfluoride, 1% NP-40/IGEPAL, and a phosphatase-inhibitor cocktail (Set II, Calbiochem)], scraped off the dish and incubated 1 hour to 4°C with shaking. Cell lysates were precleared by incubating with 10 µl protein A-agarose bead slurries (0.5 mL agarose/2 mL phosphate-buffered saline) for 30 min at 4°C, and then centrifuged three times for 5 minutes at 2500 rpm, to wash supernatants. […]

This note sets out measurements from patent EP3748362A1, “IN VITRO METHOD FOR DETECTING RENAL DISEASE” (Fundacion Instituto De Investigacion Sanitaria Fundacion …, priority 2019, dated 2020).

Each structure is given as a SMILES string.

For `C[C@H](/C=C/[C@H](C)C(C)(C)O)[C@H]1CC[C@H]2/C(=C/C=C3C[C@@H](O)C[C@H](O)C3)CCC[C@]12C` [paricalcitol], the “NF-κB1 activation, evaluated by IκB-α phosphorylation and p65/NF-κB DNA binding activity” value in the test on NF-κB1 is listed as “not modified”. The “TWEAK-induced TRAF3 protein levels” value in the test with TRAF3 is recorded as “restored TWEAK-induced TRAF3 protein levels to values similar to control-untreated cells”. Further, in the test with NF-κB2, the “TWEAK-induced IKK-α phosphorylation, the increase in NIK, and p52 and RelB nuclear levels” value is recorded as “inhibited”. Besides, the “TRAF3 ubiquitination and CIAP1-TRAF3 complex formation” value in the test with CIAP1-TRAF3 complex is given as “prevented”.
